Target: T1, Cystathionine β-synthase (CBS) (Homo sapiens, UniProt P35520)
T1 sequence (P35520 1-408): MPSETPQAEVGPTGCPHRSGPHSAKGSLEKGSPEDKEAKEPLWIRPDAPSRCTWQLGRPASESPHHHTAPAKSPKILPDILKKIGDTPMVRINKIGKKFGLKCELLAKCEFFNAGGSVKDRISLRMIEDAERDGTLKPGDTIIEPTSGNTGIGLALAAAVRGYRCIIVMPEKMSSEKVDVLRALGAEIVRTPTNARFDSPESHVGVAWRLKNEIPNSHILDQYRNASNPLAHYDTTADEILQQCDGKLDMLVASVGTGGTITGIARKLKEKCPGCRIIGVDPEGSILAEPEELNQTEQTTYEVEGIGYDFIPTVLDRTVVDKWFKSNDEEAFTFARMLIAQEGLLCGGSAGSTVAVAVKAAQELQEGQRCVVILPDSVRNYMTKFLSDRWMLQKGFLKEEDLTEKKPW
Assay: Loss of purified enzyme activity
Type: biochemical

O=NOO [peroxynitrite, oxoperoxonitrate(1-)]
IC50: ~150 µM
